“Also recorded” adds a separate entry of the source.
Legend:
[1] = tested on: SET-domain-containing enzymes; test: Selectivity against the panel of SET-domain-containing KMTs; type: biochemical, human; details: highest tested concentration 100 μM
Protocol: . […] After incubation for 60 min at 30 °C, the reaction mixture was delivered to filter paper for detection (as assessed by scintillation). […] Data were analyzed using Excel and GraphPad Prism 6.0 software (GraphPad Software Inc., San Diego, CA). Values obtained for each compound are mean ± SD determined for two separate experiments.

[2] = molecular target: T1, EZH2/KMT6 (5 component complex) (Homo sapiens, UniProt Q15910); test: HotSpot KMT activity assay, EZH2; type: biochemical; details: read-out: % EZH2 residual activity
T1 construct: including EZH2 residues 2–746, AEBP2 2–517, EED 2–441; His (N); purchased Reaction Biology Corporation
Protocol: Then, ^3H-SAM (final concentration 1 μM) was delivered into the reaction mixture to initiate the reaction. After incubation for 60 min at 30 °C, the reaction mixture was delivered to filter paper for detection (as assessed by scintillation). […] No inhibitor control (DMSO) was considered as showing 100% enzyme activity. Data were analyzed using Excel and GraphPad Prism 6.0 software (GraphPad Software Inc., San Diego, CA). Values obtained for each compound are mean ± SD determined for two separate experiments.

T1 sequence (Q15910 2-746): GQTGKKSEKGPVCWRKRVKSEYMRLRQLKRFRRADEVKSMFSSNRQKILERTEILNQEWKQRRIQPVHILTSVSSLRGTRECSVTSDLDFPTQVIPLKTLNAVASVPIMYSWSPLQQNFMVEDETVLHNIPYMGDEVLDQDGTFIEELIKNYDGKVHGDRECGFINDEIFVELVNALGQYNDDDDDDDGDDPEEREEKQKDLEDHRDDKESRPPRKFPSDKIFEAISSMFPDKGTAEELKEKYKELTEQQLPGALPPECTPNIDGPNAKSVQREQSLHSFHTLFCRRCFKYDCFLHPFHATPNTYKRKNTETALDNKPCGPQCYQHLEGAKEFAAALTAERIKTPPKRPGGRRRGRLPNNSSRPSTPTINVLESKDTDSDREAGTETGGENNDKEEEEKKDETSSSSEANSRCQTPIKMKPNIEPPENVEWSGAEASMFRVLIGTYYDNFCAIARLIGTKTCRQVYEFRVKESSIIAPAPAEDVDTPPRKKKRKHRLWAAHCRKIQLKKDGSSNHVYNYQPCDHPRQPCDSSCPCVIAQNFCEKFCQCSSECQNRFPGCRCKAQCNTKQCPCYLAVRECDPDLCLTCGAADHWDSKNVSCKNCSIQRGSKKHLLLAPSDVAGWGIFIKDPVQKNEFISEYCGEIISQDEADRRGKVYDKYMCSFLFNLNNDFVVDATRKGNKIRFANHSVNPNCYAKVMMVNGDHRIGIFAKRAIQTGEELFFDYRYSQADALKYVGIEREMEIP
T1 sequence (Q6ZN18 2-517 partner limits assumed): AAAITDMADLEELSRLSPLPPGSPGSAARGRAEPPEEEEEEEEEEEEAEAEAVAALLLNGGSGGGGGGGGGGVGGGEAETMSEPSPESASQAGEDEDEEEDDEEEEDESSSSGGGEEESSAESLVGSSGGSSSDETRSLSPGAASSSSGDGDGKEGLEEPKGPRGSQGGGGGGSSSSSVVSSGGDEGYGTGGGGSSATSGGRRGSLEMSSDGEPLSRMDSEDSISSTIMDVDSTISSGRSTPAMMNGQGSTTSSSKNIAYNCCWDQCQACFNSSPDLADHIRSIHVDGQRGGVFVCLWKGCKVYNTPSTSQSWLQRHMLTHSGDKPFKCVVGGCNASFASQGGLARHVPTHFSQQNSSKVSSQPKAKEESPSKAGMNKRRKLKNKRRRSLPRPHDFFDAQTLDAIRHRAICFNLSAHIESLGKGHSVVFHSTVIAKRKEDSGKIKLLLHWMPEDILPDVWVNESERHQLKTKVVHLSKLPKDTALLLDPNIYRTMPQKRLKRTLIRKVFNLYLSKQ
T1 sequence (O75530 2-441 partner limits assumed): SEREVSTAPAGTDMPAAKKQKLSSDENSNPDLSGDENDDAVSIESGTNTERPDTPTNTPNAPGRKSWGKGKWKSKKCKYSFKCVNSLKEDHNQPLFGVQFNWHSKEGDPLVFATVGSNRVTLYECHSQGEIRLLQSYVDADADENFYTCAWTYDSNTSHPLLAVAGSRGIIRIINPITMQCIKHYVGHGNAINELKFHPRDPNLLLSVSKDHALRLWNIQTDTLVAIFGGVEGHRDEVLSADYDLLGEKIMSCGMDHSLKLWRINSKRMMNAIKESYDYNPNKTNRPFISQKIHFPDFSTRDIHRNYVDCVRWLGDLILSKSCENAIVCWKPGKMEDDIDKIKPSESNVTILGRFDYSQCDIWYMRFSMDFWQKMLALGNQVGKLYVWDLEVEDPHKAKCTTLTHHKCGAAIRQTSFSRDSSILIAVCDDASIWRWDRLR
T1 sequence (Q09028 2-425 partner limits assumed): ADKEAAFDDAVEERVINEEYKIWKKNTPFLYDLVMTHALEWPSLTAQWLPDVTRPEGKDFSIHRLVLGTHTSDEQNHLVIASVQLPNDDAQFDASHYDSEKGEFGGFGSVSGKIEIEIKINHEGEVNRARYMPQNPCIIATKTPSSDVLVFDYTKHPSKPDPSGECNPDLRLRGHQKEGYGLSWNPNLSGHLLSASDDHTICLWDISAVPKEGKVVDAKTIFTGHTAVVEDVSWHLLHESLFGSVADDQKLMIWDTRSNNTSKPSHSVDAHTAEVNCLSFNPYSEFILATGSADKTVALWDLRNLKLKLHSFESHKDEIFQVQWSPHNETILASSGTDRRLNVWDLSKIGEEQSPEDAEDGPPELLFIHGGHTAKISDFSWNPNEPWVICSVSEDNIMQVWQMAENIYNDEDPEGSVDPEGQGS
T1 sequence (Q15022 2-739 partner limits assumed): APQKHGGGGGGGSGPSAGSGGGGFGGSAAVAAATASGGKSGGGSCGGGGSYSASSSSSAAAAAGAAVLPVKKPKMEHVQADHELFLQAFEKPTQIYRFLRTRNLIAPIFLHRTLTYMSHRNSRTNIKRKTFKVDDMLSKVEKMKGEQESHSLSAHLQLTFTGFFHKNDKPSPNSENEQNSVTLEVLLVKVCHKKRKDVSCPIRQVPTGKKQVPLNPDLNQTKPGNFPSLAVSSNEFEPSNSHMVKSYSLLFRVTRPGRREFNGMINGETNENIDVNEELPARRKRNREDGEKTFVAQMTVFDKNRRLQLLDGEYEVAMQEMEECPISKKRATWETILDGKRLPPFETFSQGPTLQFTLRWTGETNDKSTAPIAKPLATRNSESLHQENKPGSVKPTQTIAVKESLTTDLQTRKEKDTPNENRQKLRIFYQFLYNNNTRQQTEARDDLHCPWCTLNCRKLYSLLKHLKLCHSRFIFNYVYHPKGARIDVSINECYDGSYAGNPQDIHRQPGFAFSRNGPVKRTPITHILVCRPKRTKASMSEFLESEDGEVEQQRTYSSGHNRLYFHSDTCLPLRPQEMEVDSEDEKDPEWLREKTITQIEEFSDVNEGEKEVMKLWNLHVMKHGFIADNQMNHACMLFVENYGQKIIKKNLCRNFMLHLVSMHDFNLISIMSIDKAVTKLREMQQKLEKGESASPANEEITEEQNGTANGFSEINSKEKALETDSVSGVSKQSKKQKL

remaining activity at 10 µM ([2]; 10 μM): 104.5 ± 0.99%
remaining activity at 100 µM ([2]; 100 μM): 77.6 ± 3.43%
Compound: COC(=O)c1cc(O)c2cc(NC(=O)NCCCNC(=N)NC[C@H]3O[C@@H](n4cnc5c(N)ncnc54)[C@H](O)[C@@H]3O)cc(C(F)(F)F)c2c1 [1j, Methyl 6-(3-(3-(3-(((2R,3S,4R,5R)-5-(6-Amino-9H-purin-9-yl)-3,4-dihydroxytetrahydrofuran-2-yl)methyl)guanidino)propyl)ureido)-4-hydroxy-8-(trifluoromethyl)-2-naphthoate]
inhibition of SET-domain-containing enzymes (in words) [1]: none of the SET-domain-containing enzymes was inhibited; also recorded: not inhibited
